Experimental data: paper PMC2610413 (Bioorganic & medicinal chemistry letters, 2008)
Blank lines part the entries; values can stand above or below the compound they belong to.

What was measured:
Blk = Blk (Homo sapiens, UniProt P51451); test: Biochemical enzymatic kinase assay, Blk
[1] = cited from earlier work
[2] = tested on: Tel-tyrosine kinase (Blk) transformed Ba/F3 cells; test: Cytotoxicity assay, Tel-Blk transformed Ba/F3 cells; conditions: cellular assay
EGFR (T790M) = conditions: cited from earlier work
[3] = biological target: Tel-wild-type Bmx transformed Ba/F3 cells (Homo sapiens, UniProt P51813); test: Cytotoxicity assay, Tel-wild-type Bmx transformed Ba/F3 cells; assay type: cell-based; conditions: cellular assay
Tel-wild-type Bmx transformed Ba/F3 cells, sequence (P41212 1-336 partner, one chain of several): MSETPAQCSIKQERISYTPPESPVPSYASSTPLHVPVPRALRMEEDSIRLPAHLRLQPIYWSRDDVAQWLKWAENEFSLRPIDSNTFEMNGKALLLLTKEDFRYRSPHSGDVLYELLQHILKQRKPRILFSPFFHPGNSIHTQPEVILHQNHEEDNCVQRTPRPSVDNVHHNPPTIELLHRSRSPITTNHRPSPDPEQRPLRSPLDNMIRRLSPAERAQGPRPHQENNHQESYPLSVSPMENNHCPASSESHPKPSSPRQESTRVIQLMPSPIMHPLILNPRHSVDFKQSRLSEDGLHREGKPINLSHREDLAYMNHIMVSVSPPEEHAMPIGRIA

Bmx = biological target: T1, Bmx (Homo sapiens, UniProt P51813); test: Biochemical enzymatic kinase assay, Bmx
T1 sequence (P51813 1-675): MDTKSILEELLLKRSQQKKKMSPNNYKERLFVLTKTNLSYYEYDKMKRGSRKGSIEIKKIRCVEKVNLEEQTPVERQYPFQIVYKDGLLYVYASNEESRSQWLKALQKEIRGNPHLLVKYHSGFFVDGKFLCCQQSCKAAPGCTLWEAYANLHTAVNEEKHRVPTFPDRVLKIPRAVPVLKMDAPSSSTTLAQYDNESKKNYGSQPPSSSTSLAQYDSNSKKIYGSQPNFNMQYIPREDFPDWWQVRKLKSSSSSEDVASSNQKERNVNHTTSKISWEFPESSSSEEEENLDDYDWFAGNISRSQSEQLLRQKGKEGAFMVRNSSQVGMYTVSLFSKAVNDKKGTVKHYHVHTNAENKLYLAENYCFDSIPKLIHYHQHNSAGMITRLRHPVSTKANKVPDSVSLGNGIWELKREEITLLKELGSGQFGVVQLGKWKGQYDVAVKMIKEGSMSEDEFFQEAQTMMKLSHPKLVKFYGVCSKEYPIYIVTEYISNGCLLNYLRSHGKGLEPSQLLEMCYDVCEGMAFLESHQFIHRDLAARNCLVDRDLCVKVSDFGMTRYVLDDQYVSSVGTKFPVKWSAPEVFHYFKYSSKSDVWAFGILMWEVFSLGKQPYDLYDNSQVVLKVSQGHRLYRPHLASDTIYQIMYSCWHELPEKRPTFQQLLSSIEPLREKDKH

Bmx kinase domain = Bmx kinase domain (Homo sapiens, UniProt P51813); test: Mass spectrometry of covalent modification of recombinant Bmx kinase domain; assay type: binding
full-length Flag-Bmx = biological target: T2, full-length Flag-Bmx (Homo sapiens, UniProt P51813); conditions: 10 μM; immunoprecipitated Flag-Bmx pre-incubated with drug at 4°C for 2 hrs
T2 sequence (P51813 1-675): T1 sequence (P51813 1-675)

Blk, sequence (P51451 whole entry, species assumed): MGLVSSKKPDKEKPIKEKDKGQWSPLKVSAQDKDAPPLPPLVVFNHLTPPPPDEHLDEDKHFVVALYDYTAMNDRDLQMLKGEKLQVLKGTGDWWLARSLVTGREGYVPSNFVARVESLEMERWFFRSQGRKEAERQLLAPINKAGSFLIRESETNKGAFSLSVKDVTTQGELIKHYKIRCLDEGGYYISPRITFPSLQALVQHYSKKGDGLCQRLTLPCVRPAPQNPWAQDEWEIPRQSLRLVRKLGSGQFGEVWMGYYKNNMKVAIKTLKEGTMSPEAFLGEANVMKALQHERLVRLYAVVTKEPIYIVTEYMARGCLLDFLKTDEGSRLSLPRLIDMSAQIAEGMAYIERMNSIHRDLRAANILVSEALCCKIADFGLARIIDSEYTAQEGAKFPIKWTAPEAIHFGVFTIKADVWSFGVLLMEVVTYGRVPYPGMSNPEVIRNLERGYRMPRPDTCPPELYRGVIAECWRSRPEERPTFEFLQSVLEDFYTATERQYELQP

Structure (SMILES): C=CC(=O)Nc1cc2c(Nc3ccc(F)c(Cl)c3)ncnc2cc1OCCCN1CCOCC1 [CI-1033]
inhibitory activity against Blk (Blk): potent inhibitory activity
toxicity in clinical phase II study [1]: severe toxicity
inhibitory activity against Blk [2]: potent inhibitory activity

Structure (SMILES): CCOc1cc2ncc(C#N)c(Nc3ccc(F)c(Cl)c3)c2cc1NC(=O)/C=C/CN(C)C [EKB-569]
inhibition of EGFR (T790M) (EGFR (T790M)): strongly inhibit

Structure (SMILES): C=CC(=O)Nc1ccc2ncnc(Nc3cccc(Br)c3)c2c1 [PD168393]
inhibitory activity against Bmx [3]: only moderate potency
inhibitory activity against Bmx (Bmx): only moderate potency
site of modification (Bmx kinase domain; chymotryptic peptide ISNGCLL, tandem MS): modification of cysteine 496
mass increase of Bmx kinase domain after incubation with inhibitor (Bmx kinase domain; consistent with covalent addition of a single inhibitor molecule): 369 Da

in vitro autophosphorylation of Bmx (32P incorporation) (full-length Flag-Bmx): not affected
Structure (SMILES): C#Cc1cccc(Nc2ncnc3cc(OCCOC)c(OCCOC)cc23)c1 [erlotinib]
